Experiments:
GCN5 = GCN5 (Homo sapiens, UniProt Q92830); test: HAT in vitro assay, 10-dose IC50, GCN5; assay type: biochemical; details: substrate Histone H3, 3 μM Acetyl-CoA; read-out: Compound IC50 GCN5
Description: (§1) For HAT in vitro assay, MC2884 activity was also tested in vitro and IC50 was calculated as indicated in the scheme. […] Reactions were carried out at 3 μM Acetyl-CoA. Empty cells indicate no inhibition or compound activity that could not be fit to an IC50 curve.

pCAF = pCAF (Homo sapiens, UniProt Q92831); test: HAT in vitro assay, 10-dose IC50, pCAF; assay type: biochemical; details: substrate Histone H3, 3 μM Acetyl-CoA; read-out: Compound IC50 pCAF
Description: as §1

leukemia NB4 cells = test: Cell death induction in NB4 cells (FACS, pre-G1); assay type: cell-based, human; details: for % Cell death NB4 cells: 3 μM, 30 h; for effect on cell death, single inhibitor: C646 5 µM, GSK126 10 µM, used separately
[1] = tested on: neuroblastoma SHSY5Y cells; test: Cell death induction in SHSY5Y cells; assay type: cell-based; details: 3 μM, 48 h
Description: When tested in neuroblastoma SHSY5Y cells at tetrahydro-4H -pyran-4-one MC2912 failed in inducing
3 μM for 48 h, MC2884 and its analogues furnished cell death in SHSY5Y cells, whereas its thio-analogue
(Supplementary SAR Table 1). In general, the SHSY5Y similarly to what observed in NB4 cells.
than NB4 cells. Anyway, also in this cell line the death in both cell lines such as MC2910, 2912, 2909,
(MC2909), and bis 3,5-dibromophenyl (MC2910) were acetylation and EZH2 deregulation (SAR Figure 2). In […]
3-phenyl-1-propan-1-one chain at N1 (MC3187), which 3).

CBP = CBP (Homo sapiens, UniProt Q92793); test: HAT in vitro assay, 10-dose IC50, CBP; assay type: biochemical; details: substrate Histone H3, 3 μM Acetyl-CoA; read-out: Compound IC50 CBP
Description: as §1

KAT5 = KAT5 (Homo sapiens, UniProt Q92993); test: HAT in vitro assay, 10-dose IC50, KAT5; assay type: biochemical; details: substrate Histone H2A, 3 μM Acetyl-CoA; read-out: Compound IC50 KAT5
Description: as §1

GCN5, sequence (Q92830 whole entry): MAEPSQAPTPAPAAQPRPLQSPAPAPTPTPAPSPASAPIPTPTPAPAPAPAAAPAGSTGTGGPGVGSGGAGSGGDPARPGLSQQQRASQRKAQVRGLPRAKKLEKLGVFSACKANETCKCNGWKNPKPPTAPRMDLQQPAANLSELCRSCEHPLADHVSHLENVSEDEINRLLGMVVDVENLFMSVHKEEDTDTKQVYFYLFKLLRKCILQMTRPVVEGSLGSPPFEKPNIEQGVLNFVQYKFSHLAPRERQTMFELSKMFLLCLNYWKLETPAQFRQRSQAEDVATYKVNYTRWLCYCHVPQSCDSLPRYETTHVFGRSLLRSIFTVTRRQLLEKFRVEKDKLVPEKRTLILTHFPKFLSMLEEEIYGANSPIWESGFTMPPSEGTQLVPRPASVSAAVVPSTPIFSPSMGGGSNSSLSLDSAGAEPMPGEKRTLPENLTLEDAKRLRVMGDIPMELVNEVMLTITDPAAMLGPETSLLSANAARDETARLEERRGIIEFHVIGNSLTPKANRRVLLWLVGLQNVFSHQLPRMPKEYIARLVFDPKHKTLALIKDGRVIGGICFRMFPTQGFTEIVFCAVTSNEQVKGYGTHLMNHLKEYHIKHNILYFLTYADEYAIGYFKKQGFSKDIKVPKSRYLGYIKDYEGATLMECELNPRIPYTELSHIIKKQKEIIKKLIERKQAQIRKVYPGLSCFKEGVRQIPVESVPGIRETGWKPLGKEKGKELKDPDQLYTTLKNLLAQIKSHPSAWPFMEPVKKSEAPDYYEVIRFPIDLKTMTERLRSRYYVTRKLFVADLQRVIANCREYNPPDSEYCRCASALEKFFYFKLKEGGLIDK
CBP, sequence (Q92793 whole entry): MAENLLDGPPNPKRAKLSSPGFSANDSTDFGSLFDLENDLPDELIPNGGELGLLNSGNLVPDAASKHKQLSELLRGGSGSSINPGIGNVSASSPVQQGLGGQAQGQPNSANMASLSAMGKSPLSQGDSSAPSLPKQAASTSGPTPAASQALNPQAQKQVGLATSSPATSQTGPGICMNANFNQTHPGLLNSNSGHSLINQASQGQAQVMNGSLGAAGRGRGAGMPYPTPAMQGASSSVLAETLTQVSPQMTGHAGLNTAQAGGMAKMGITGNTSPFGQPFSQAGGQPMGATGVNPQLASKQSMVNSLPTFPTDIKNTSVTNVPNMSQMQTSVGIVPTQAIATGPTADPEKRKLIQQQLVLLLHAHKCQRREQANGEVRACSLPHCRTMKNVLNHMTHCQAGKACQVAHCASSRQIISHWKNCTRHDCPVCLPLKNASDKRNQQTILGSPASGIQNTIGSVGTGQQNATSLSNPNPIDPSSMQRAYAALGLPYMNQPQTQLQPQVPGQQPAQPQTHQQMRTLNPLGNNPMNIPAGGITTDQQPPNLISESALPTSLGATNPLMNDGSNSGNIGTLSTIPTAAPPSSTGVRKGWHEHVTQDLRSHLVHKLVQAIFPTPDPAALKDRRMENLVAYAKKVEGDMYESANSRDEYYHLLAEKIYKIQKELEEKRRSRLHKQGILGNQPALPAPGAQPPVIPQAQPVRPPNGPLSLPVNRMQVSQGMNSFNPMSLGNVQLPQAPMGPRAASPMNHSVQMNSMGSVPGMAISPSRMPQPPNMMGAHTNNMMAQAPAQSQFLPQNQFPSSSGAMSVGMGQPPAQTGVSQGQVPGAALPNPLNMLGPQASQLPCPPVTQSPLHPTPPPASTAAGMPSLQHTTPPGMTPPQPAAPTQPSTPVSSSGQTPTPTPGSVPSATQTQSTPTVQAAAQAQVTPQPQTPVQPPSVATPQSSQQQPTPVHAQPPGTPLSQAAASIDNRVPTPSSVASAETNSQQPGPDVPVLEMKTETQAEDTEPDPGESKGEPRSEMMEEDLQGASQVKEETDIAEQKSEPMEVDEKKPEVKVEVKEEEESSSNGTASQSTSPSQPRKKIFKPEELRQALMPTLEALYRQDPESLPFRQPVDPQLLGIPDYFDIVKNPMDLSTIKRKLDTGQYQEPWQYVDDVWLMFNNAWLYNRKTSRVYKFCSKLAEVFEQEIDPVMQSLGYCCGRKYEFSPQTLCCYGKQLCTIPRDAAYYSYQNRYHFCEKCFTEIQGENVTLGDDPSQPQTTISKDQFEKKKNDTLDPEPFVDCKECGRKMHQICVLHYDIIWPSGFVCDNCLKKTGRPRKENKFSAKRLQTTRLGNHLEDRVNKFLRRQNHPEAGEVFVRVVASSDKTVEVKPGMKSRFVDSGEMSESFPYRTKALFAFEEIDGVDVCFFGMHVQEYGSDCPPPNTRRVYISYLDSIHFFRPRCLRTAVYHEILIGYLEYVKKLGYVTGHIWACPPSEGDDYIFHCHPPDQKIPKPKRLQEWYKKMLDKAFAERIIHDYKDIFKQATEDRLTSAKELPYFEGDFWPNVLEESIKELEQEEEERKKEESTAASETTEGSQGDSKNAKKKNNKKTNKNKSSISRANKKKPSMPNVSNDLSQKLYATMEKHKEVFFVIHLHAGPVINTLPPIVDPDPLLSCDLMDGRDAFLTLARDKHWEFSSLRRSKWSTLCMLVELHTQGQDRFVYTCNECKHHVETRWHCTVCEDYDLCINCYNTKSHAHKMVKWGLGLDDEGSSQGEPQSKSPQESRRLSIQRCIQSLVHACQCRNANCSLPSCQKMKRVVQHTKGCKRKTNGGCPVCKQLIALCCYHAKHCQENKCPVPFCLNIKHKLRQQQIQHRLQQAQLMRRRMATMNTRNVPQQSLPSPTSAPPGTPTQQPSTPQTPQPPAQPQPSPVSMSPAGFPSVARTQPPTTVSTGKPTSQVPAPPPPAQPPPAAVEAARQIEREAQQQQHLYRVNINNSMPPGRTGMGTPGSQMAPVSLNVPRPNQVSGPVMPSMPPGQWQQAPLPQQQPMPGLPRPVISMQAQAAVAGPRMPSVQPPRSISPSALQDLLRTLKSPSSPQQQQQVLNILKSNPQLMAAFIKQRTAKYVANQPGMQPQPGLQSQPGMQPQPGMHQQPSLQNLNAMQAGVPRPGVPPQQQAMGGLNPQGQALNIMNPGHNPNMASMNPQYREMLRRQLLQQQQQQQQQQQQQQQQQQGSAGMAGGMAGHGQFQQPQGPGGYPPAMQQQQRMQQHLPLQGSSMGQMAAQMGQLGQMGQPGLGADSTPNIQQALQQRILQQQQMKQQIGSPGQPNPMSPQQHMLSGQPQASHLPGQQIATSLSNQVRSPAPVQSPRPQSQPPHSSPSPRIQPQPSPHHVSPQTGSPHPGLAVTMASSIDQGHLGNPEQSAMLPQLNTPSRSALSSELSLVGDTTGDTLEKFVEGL
KAT5, sequence (Q92993 whole entry): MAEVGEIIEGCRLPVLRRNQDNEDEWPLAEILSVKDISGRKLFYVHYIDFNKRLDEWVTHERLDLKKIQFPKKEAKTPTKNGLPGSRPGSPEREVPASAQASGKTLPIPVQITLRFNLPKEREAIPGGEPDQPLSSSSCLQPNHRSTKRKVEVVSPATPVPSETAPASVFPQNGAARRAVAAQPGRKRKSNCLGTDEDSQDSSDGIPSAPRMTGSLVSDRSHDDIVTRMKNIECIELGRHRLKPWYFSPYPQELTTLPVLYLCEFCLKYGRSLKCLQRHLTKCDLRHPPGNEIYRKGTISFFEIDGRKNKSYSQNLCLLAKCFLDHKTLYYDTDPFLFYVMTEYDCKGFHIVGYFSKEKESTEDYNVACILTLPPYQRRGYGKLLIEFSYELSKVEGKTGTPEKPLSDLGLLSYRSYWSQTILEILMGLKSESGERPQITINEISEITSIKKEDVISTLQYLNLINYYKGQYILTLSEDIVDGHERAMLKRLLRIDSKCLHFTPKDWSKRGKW
pCAF, sequence (Q92831 whole entry): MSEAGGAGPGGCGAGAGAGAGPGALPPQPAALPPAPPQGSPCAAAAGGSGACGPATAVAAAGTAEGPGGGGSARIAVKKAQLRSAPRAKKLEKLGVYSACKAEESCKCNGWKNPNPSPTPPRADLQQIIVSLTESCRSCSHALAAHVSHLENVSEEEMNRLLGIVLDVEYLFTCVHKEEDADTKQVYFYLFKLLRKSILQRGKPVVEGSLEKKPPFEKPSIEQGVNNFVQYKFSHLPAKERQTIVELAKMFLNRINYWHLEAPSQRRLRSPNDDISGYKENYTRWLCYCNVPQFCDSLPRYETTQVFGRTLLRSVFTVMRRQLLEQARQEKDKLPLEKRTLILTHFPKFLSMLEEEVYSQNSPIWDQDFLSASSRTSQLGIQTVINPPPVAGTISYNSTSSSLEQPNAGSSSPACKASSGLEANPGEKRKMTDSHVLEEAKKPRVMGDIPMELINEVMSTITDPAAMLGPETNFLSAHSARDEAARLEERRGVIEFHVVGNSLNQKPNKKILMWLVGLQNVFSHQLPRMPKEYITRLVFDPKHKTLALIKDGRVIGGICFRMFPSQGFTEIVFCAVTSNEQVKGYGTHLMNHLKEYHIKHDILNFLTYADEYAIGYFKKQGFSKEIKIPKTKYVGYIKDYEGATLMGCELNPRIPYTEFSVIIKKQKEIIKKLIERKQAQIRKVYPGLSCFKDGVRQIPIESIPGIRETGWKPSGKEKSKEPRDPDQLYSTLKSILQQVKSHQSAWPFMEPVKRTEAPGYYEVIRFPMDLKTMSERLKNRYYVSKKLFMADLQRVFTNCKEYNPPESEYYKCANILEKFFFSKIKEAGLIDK

| SMILES | % Cell death NB4 cells (leukemia NB4 cells) | % Cell death SHSY5Y cells [1] | also measured |
| --- | --- | --- | --- |
| CCCCCCCCCCCCCCCc1cccc(O)c1C(=O)O [Anacardic Acid] | – | – | IC50 (GCN5): 38.6 µM; IC50 (pCAF): 38.8 µM |
| O=C1C(=Cc2ccccc2Br)CN(Cc2ccccc2)CC1=Cc1ccccc1Br [MC2908] | 30.3% | 9.2% | – |
| O=C1C(=Cc2cccc(Br)c2)CN(C(=O)CCc2ccccc2)CC1=Cc1cccc(Br)c1 [MC3187] | 28.9% | 19.9% | – |
| O=C1/C(=C/c2ccc(O)cc2Br)CN(Cc2ccccc2)C/C1=C\c1ccc(O)cc1Br [MC3395] | 0,53% | 1,0% | – |
| CC[C@H](C)n1cc(C)c2c(C(=O)NCc3c(C)cc(C)[nH]c3=O)cc(-c3ccc(N4CCNCC4)nc3)cc21 [GSK126, reference compound] | – | – | effect on cell death, single inhibitor (leukemia NB4 cells; NB4 cells): no effects |
| O=C1/C(=C/c2cccc(Br)c2)CCC/C1=C\c1cccc(Br)c1 [MC2911] | 0,76% | 0,8% | – |
| O=C1C(=Cc2cccc(Br)c2)CSCC1=Cc1cccc(Br)c1 [MC2913] | 52.7% | 23.9% | – |
| CC1=NN(c2ccc(C(=O)O)cc2)C(=O)/C1=C\c1ccc(-c2cc(C)c(C)cc2[N+](=O)[O-])o1 [C646, reference compound] | – | – | IC50 (CBP): 78.7 nM; IC50 (KAT5): 20.4 µM; effect on cell death, single inhibitor (leukemia NB4 cells; NB4 cells): no effects |
| CN(C)CC[C@H](CSc1ccccc1)Nc1ccc(S(=O)(=O)NC(=O)c2ccc(N3CCN(Cc4ccccc4-c4ccc(Cl)cc4)CC3)cc2)cc1[N+](=O)[O-] [ABT-737, reference compound] | – | – | cell death, ABT-737 with addition of MC2884 (leukemia NB4 cells; NB4 cells, ABT-737 1 µM plus MC2884 at concentrations that alone induced little apoptosis): up to 60% |
| O=C1C(=Cc2cccc(Br)c2)CN(CCc2ccccc2)CC1=Cc1cccc(Br)c1 [MC3269] | 62.5% | 19.2% | – |
| O=C1C(=Cc2ccc(Br)cc2)CN(Cc2ccccc2)CC1=Cc1ccc(Br)cc1 [MC2909] | 8.8% | 4.7% | – |
| O=C1C(=Cc2cccc(Br)c2)CN(C(=O)c2ccccc2)CC1=Cc1cccc(Br)c1 [MC3146] | 13.2% | 5.6% | – |
| CN1CC(=Cc2cccc(Br)c2)C(=O)C(=Cc2cccc(Br)c2)C1 [MC2914] | 36% | 9.0% | – |
| O=C(/C=C/c1ccc(Br)cc1)/C=C/c1ccc(Br)cc1 [MC2886] | 0,56% | 1,2% | – |
| O=C1C(=Cc2cccc(Br)c2)CN(CC(=O)c2ccccc2)CC1=Cc1cccc(Br)c1 [MC3207] | 38% | 7.0% | – |
